Source: patent US20130317096A1, “SYNERGISTIC INTERACTION OF AT LEAST ONE VITAMIN E COMPONENT AND TYROSINASE INHIBITORS FOR DERMATOLOGICAL APPLICATIONS” (Davos Life Science Pte Ltd, priority 2010, published 2013)
Entries after “also recorded” stand apart in the source; their conditions may differ.

Tests used:
[1] = tested on: tyrosinase; assay: UV-induced tyrosinase protein expression, Western blot; type: cell-based, mouse
Experimental: (§1) The UVB source for cell irradiation was provided using a UVP UVM-57 handheld UV lamp (UVP Inc, Upland, Calif., USA).
Briefly, cell lysates were prepared by suspending cell pellets in lysis buffer (50 mmol/l Tris-HCl [pH 8.0], 150 mmol/l NaCl, 1% NP40, 0.5% deoxycholate, 0.1% SDS, 1 mg/ml aprotinin, 1 μg/ml leupeptin, and 1 mmol/l phenylmethylsulfonyl fluoride). The protein concentration was measured using the DC Protein Assay kit (Bio-Rad, Hercules, Calif., USA). An equal amount of protein (30 μg) was loaded onto a 10% SDS polyacrylamide gel for electrophoresis, then transferred onto a polyvinylidene difluoride membrane (Amersham, Piscataway, N.J., USA). The membrane was then incubated with primary antibodies for 1 hr at room temperature against tyrosinase, Id1, and beta-actin (Santa Cruz Biotechnology, Inc., Santa Cruz, Calif., USA). After incubation with appropriate secondary antibodies, signals were visualized by an ECL Western blotting system (Amersham). The expression of β-actin was assessed as an internal loading control for total cell lysate.

[2] = tested on: B16 cells; assay: Melanin content of pre-treated B16 cells after UV exposure; type: cell-based, mouse; details: 10 minutes UV exposure (short and long wave UV)
Experimental: as §1
Harvested cell pellets were dissolved in 1 ml of 1N sodium hydroxide before incubation at 80° C. The melanin content was then immediately measured at 420 nm. The absorbance percentage values of the treated groups in comparison to untreated controls were calculated against per μg of the determined total protein content.

[3] = tested on: tyrosinase mRNA; assay: Reverse transcriptase PCR of tyrosinase mRNA; type: cell-based, mouse; details: B16 melanoma cells
Text: Total RNA was isolated using Trizol reagent according to the manufacturer's protocol (Invitrogen, Carlsbad, Calif., USA). cDNA was synthesized using the SuperScript First Strand Synthesis System (Invitrogen, Carlsbad, Calif., USA) and was then amplified by PCR with tyrosinase-specific primers (forward primer, tyrosinase-S,5′-[…]-3′ [−2236/−2217] (SEQ ID NO: 1) and reverse primer, tyrosinase-AS,5′-[…]-3′ [+63/+42]) (SEQ ID NO: 2) and GAPDH specific primers: 5′ to 3′F […] (SEQ ID NO: 3); 5′ to 3′R […] (SEQ ID NO: 4). The PCR cycling protocol was as follows: 30 cycles for 10 min at 95° C., 30 sec at 95° C., 30 sec at 55° C., 1 min at 72° C., and 10 min at 72° C. Glyceraldehyde 3-phosphate dehydrogenase (GAPDH) was amplified as an internal control. The PCR products were electrophoresed on a 2% agarose gel and analyzed using a gel documentation system.

[4] = tested on: B16 melanoma cells; assay: MTT cell viability assay; type: cell-based, mouse; details: 24 hrs of treatment, increasing dosages
Experimental: B16 mouse melanoma cells were purchased from (ATCC, Manassas, Va., USA).
The base medium for the cell line was Dulbecco's modified Eagle's medium (DMEM). To make the complete growth medium, fetal bovine serum (final concentration, 10%) was added to the base medium. Tocotrienol (T3) and tocopherol (TP) isomers and the palm tocotrienol-rich fraction (TRF) were purified from a palm fatty acid distillate (PFAD) using molecular distillation and Novasep® equipment (Novasep, Pompey, France). The extraction facility is located in Tuas, Singapore. The PFAD feed was purchased from Kuala Lumpur Kepong Berhad (Kuala Lumpur, Malaysia). The purity of the vitamin E isomers was verified by HPLC and gas chromatography (GC) percentage peak area.
For the cell viability study, 5×10^3 cells re-suspended in 100 μl of medium were plated into each well of a 96-well plate. The cells were then treated with different concentrations of the vitamin-E isomers for 24 hrs. After the treatment, 20 μl of MTT solution (1 mg/ml in PBS; Sigma-Aldrich, St. Louis, Mo., USA) was added to each well and the cells were incubated at 37° C. for 2 hrs. The formazan crystals were then re-suspended in 200 μl of DMSO and the intensity at 595 nm was measured.

[5] = tested on: B16 cells xenografted on the flank of nude mice; assay: B16 xenograft model in nude mice; type: in vivo; details: cells pre-treated with 20 μM for 1 week, 14 days oral supplementation
Experimental: The experimental protocol was approved by the IACUC Committee of the A-STAR Biological Resource Centre (BRC) at Biopolis (IACUC no. 080302). Male BALB/c athymic nude mice (4-5 weeks old, 18-22 g) were purchased from The Jackson Laboratory (Bar Harbor, Me., USA). Mice were housed in Department 1 of the Biological Resource Centre (Biopolis, Singapore) under the standard condition (20.8±2° C., 55±1% relative humidity, 12 hrs light/dark cycle) with rodent diet (Harlan Laboratories, Inc., Indianapolis, Ind., USA) and chlorinated reverse osmosis water supplied in a pathogen-free environment. Briefly, B16 cells were pre-treated with 20 μM of γ- and δ-T3, or palm TRF for 1 week. Then, 5×10^5 pre-treated B16 cells in 100 μl serum-free DMEM were injected subcutaneously into the flank of nude mice using a 1-ml syringe with a 26-gauge needle (Becton Dickinson, Franklin Lakes, N.J., USA). This was followed by a 2-week oral supplementation of γ- and δ-T3, or palm TRF at the dose of 100 mg/kg/day. Altogether, there are four experimental groups: G1, vehicle control; G2, γT3 (100 mg/kg/d); G3, δT3 (100 mg/kg/d); and G4, full spectrum palm TRF (100 mg/kg/d). The mice were weighed daily and the tumors were measured using a Digital Carbon Fiber Caliper (Fisher Scientific, Pittsburgh, Pa., USA) at the 5th and 14th day after innoculation. After 14 days of treatment, the mice were euthanized by CO2 inhalation. Blood samples were collected through cardiac bleeding using a 26-gauge needle. Blood samples were incubated at room temperature for 30 min, followed by centrifugation at 4400 rpm for 30 min at 4° C. Serum, as the supernatant, was separated from plasma and stored at −80° C. Tumors, liver, kidney, spleen, lung, heart, and skin were harvested.

[6] = tested on: cleaved caspase 3 and PARP; assay: Western blot of apoptotic molecules; type: cell-based, mouse; details: B16 melanoma cells

In the case of `CC(C)=CCC/C(C)=C/CC/C(C)=C/CCC1(C)CCc2cc(O)c(C)c(C)c2O1` (stereo not shown) [γ-tocotrienol, 7,8-dimethyltocotrienol], the “tyrosinase protein expression of B16 cells exposed to UV” value ([1]; UV 1, 10, 30 and 60 minutes) is reported as “significantly suppressed the tyrosinase protein expression”, the “long-term inhibitory effect on UVB-induced tyrosinase activation” value ([1]; long-term UVB) is reported as “comparable” and the “melanin content after UV exposure” value [2] is reported as “significantly suppressed the melanin content”. For the same molecule, the “tyrosinase mRNA” value [3] was “No change of tyrosinase mRNA”, the “tyrosinase mRNA” value ([3]; listed as γ-T3) was “not affected” and the “B16 melanoma cell viability / proliferation rate” value [4] was “inhibited the proliferation rate of B16 melanoma cells in a dose-dependent fashion; also recorded: inhibit B16 melanoma cell viability at high concentrations”. The “pigmentation of solid tumors” value [5] was “lighter in colour compared to controls”, the tumor size [5] was “significantly smaller” and the “induction of apoptotic molecules (cleaved caspase 3 and PARP)” value [6] was “induced critical apoptotic molecules in a dose-dependent manner”. The “induction of apoptotic molecules (cleaved caspase 3 and PARP)” value ([6]; listed as γ-T3) was “induced cellular apoptosis”.
